Assay results reported in patent US20220098203A1 (priority 2018, published 2022).

Tests used:
HCT116 MTAP-/- = assay: Inhibition of cellular proliferation (Cell Titer Glo), HCT116 MTAP-/-; format: cell-based, human; details: Homo sapiens, HCT-116, 96 h, Table 5a, 4 days, read-out: 4 Day Relative Growth Inhibition (MTAP −/−)
Description: (§1) Test compound impact on cancer cell growth was assessed by treating cancer cells with compound for 4 days and then measuring proliferation using an ATP-based cell proliferation readout (Cell Titer Glo, Promega Corporation).
(§2) In a typical assay an isogenic pair of HCT116 human colon carcinoma cell lines which vary only in MTAP deletion status (HCT116 MTAP+/+ and HCT116 MTAP−/−) were plated in 96-well dishes at appropriate cell density. Following 24 hours, cells were then treated with the candidate MAT2A inhibitor. […] Compound was then transferred to a working stock plate in cell culture media by adding 5 μL of compound in DMSO to 495 μL of cell culture media. This working stock was then added to cells via a further 5-fold dilution, by adding 25 μL of working stock to 100 μL of cells in culture media. Following compound addition, cells were incubated at 37° C./5% CO2 for 4 days.
(§3) The plate was then covered with aluminum foil and shaken for 15 minutes to ensure complete mixing and full cell lysis. […] This luminescence measure was converted to a proliferation index by subtracting from each data point the ATP luminescence signal measured from a bank (no cells) well and dividing by the ATP luminescence signal measured in 0.2% DMSO control well adjusted for signal in blank well.

MAT2A homodimer = target: T1, MAT2A homodimer (Homo sapiens, UniProt P31153); assay: MAT2A biochemical assay (liberated phosphate, PiColorLock Gold); details: Table 5a; MAT2A biochemical assay; read-out: Enzyme Inhibition
T1 construct: inferred from the Ni sepharose purification and imidazole elution; made in house; host or cells: SF9 insect cells, recombinant baculovirus (Bac to Bac, pFASTBAC1)
Procedure, shortened: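 Baculovirus/Sf9-expressed, Ni-purified MAT2A homodimer preincubated with compound 60 min at 25 °C, then reacted 60 min at 25 °C with substrate mix of 500 μM ATP and 400 μM L-methionine, pH 7.0 (mix, not final levels). Phosphate released with SAM measured by PiColorLock Gold against phosphate standard curve.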

HCT116 MTAP+/+ = assay: Inhibition of cellular proliferation (Cell Titer Glo), HCT116 MTAP+/+; format: cell-based; details: Homo sapiens, HCT-116, 96 h, Table 5a, 4 days, read-out: 4 Day Relative Growth Inhibition (MTAP +/+)
Description: as §1, §2, §3

[1] = system: SAM in HCT116 MTAP-deleted cells; assay: Cellular assay of target engagement (SAM), LC-MS/MS; format: cell-based, human; details: Homo sapiens, HCT-116, Table 5a, 72 h, read-out: Cell 72 h SAM Inhibition (MTAP −/−)
Description: Measurement of MAT2A activity in cells was made by direct quantitation of the abundance of the product of its enzymatic activity, SAM. Cancer cells were treated with candidate MAT2A inhibitors for a suitable incubation period, and the cells were then lysed using a reagent which quenched any further enzyme activity. Soluble metabolites including SAM were collected and SAM itself was directly measured from the lysate using quantitative LC-MS/MS.
A typical assay was performed using an HCT116 human colon carcinoma cell line which was genetically engineered to delete the MTAP gene (commercially available from Horizon Discovery). […] Cells were plated in 96-well dishes at appropriate cell density. Following 24 hours, cells were then treated with the candidate MAT2A inhibitor. […] Compound was then transferred to a working stock plate in cell culture media by adding 5 μL of compound in DMSO to 495 μL of cell culture media. This working stock was then added to cells via a further 5-fold dilution, by adding 25 μL of working stock to 100 μL of cells in culture media. Following compound addition, cells were incubated at 37° C./5% CO2 for 72 hrs.
To quantitate SAM levels following compound treatment, cells were gently washed once in ammonium carbonate buffer (75 mM at pH 7.4), placed on dry ice, and lysed with metabolite extraction buffer (80% cold methanol and 20% water (v/v) with acetic acid at 1M final concentration with 200 ng/mL deuterated d3-SAM as internal control). Following centrifugation at 4° C. at 3,200 rpm for 30 minutes, the supernatant was collected and stored at −80° C. until analysis by Liquid Chromatography with tandem Mass Spectrometry (LC-MS/MS). LC-MS/MS analysis was performed using an API6500 Mass Spectrometer (Sciex, Framingham, Mass., USA) operating in positive ion spray mode and equipped with a Waters UPLC Acquity (Waters, Milford, Mass., USA) BEH Amide column.

T1 sequence (P31153 whole entry): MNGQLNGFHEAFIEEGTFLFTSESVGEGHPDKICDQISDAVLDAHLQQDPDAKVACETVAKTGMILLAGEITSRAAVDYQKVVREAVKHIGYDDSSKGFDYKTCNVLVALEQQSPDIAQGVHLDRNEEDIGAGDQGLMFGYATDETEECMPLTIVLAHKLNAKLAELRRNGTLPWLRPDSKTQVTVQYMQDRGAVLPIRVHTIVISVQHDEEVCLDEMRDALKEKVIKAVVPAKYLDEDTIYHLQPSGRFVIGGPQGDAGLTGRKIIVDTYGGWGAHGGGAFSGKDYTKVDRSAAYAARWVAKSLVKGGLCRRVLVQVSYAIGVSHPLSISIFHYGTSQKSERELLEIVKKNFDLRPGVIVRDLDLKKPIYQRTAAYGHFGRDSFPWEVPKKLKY

| SMILES | IC50 (HCT116 MTAP-/-) | IC50 (MAT2A homodimer) | IC50 (HCT116 MTAP+/+) | IC50 [1] |
| --- | --- | --- | --- | --- |
| Cn1cc2cc(N3Cc4ccc(OCC(F)F)nc4N(c4ccc(Br)cc4)C3=O)ccc2n1 [Example 133, 1-(4-bromophenyl)-7-(2,2-difluoroethoxy)-3-(2-methyl-2H-indazol-5-yl)-3,4-dihydropyrido[2,3-d]pyrimidin-2(1H)-one] | < 0.1 µM | < 0.1 µM | > 1 µM | < 0.1 µM |
| [2H]C([2H])([2H])Oc1ccc(N2C(=O)N(c3ccc4nn(C)cc4c3)Cc3ccc(OCC)nc32)cc1 [Example 137, 7-ethoxy-1-(4-(methoxy-d3)phenyl)-3-(2-methyl-2H-indazol-5-yl)-3,4-dihydropyrido[2,3-d]pyrimidin-2(1H)-one] | < 0.1 µM | < 0.1 µM | > 1 µM | < 0.1 µM |
| CCOc1ccc2c(n1)N(c1ccc(OC)nc1)C(=O)N(c1ccc3nn(C)cc3c1)C2 [Example 142, 7-ethoxy-1-(6-methoxypyridin-3-yl)-3-(2-methyl-2H-indazol-5-yl)-3,4-dihydropyrido[2,3-d]pyrimidin-2(1H)-one] | 0.1 to 1 µM | < 0.1 µM | > 1 µM | < 0.1 µM |
| CCOc1ccc2c(n1)N(c1ccc(OC)cc1)C(=O)N(c1ccc3nn(C)cc3c1)C2 [Example 143, 7-ethoxy-1-(4-methoxyphenyl)-3-(2-methyl-2H-indazol-5-yl)-3,4-dihydropyrido[2,3-d]pyrimidin-2(1H)-one] | 0.1 to 1 µM | < 0.1 µM | > 1 µM | < 0.1 µM |
| Cn1cc2cc(N3Cc4ccc(OC5CC5)nc4N(c4ccc(OC(F)F)cc4)C3=O)ccc2n1 [Example 144, 7-cyclopropoxy-1-(4-(difluoromethoxy)phenyl)-3-(2-methyl-2H-indazol-5-yl)-3,4-dihydropyrido[2,3-d]pyrimidin-2(1H)-one] | 0.1 to 1 µM | < 0.1 µM | > 1 µM | < 0.1 µM |
| CCOc1ccc2c(n1)N(c1ccc(Cl)cc1)C(=O)N(c1ccc3nn(C)cc3c1)C2 [Example 146, 1-(4-chlorophenyl)-7-ethoxy-3-(2-methyl-2H-indazol-5-yl)-3,4-dihydropyrido[2,3-d]pyrimidin-2(1H)-one] | 0.1 to 1 µM | < 0.1 µM | > 1 µM | < 0.1 µM |
| CCOc1ccc2c(n1)N(c1ccc(OC(F)(F)F)nc1)C(=O)N(c1ccc3nn(C)cc3c1)C2 [Example 147, 7-ethoxy-3-(2-methyl-2H-indazol-5-yl)-1-(6-(trifluoromethoxy)pyridin-3-yl)-3,4-dihydropyrido[2,3-d]pyrimidin-2(1H)-one] | 0.1 to 1 µM | < 0.1 µM | > 1 µM | 0.1 to 1 µM |
| CCOc1ccc2c(n1)N(c1ccc(C(F)F)nc1)C(=O)N(c1ccc3nn(C)cc3c1)C2 [Example 149, 1-(6-(difluoromethyl)pyridin-3-yl)-7-ethoxy-3-(2-methyl-2H-indazol-5-yl)-3,4-dihydropyrido[2,3-d]pyrimidin-2(1H)-one] | < 0.1 µM | < 0.1 µM | > 1 µM | 0.1 to 1 µM |
| CCOc1ccc2c(n1)N(c1ccc(C3CC3)nc1)C(=O)N(c1ccc3nn(C)cc3c1)C2 [Example 152, 1-(6-cyclopropylpyridin-3-yl)-7-ethoxy-3-(2-methyl-2H-indazol-5-yl)-3,4-dihydropyrido[2,3-d]pyrimidin-2(1H)-one] | 0.1 to 1 µM | < 0.1 µM | > 1 µM | < 0.1 µM |
| CCOc1ccc2c(n1)N(c1ccc(-c3nnc[nH]3)cc1)C(=O)N(c1ccc3nn(C)cc3c1)C2 [Example 153, 1-(4-(4H-1,2,4-triazol-3-yl)phenyl)-7-ethoxy-3-(2-methyl-2H-indazol-5-yl)-3,4-dihydropyrido[2,3-d]pyrimidin-2(1H)-one] | < 0.1 µM | < 0.1 µM | > 1 µM | < 0.1 µM |
| CCOc1ccc2c(n1)N(c1ccc(-c3nnc[nH]3)cc1)C(=O)N(c1ccc3ncn(C)c3c1)C2 [Example 154, 1-(4-(4H-1,2,4-triazol-3-yl)phenyl)-7-ethoxy-3-(1-methyl-1H-benzo[d]imidazol-6-yl)-3,4-dihydropyrido[2,3-d]pyrimidin-2(1H)-one] | 0.1 to 1 µM | < 0.1 µM | 0.1 to 1 µM | < 0.1 µM |
| CCOc1ccc2c(n1)N(c1ccc(-c3nnc[nH]3)cc1)C(=O)N(c1ccc(OC)cc1)C2 [Example 155, 1-(4-(4H-1,2,4-triazol-3-yl)phenyl)-7-ethoxy-3-(4-methoxyphenyl)-3,4-dihydropyrido[2,3-d]pyrimidin-2(1H)-one] | 0.1 to 1 µM | < 0.1 µM | 0.1 to 1 µM | < 0.1 µM |

Now from value to molecule:

| IC50 (HCT116 MTAP-/-) | IC50 (MAT2A homodimer) | IC50 (HCT116 MTAP+/+) | IC50 [1] | SMILES |
| --- | --- | --- | --- | --- |
| < 0.1 µM | < 0.1 µM | > 1 µM | < 0.1 µM | [2H]C([2H])([2H])Oc1ccc(N2C(=O)N(c3ccc4ncn(C)c4c3)Cc3ccc(OCC(F)F)nc32)cc1 [Example 135, 7-(2,2-difluoroethoxy)-1-(4-(methoxy-d3)phenyl)-3-(1-methyl-1H-benzo[d]imidazol-6-yl)-3,4-dihydropyrido[2,3-d]pyrimidin-2(1H)-one] |
| < 0.1 µM | < 0.1 µM | 0.1 to 1 µM | < 0.1 µM | [2H]C([2H])([2H])Oc1ccc(N2C(=O)N(c3ccc4nn(C)cc4c3)Cc3ccc(OCC(F)F)nc32)cc1 [Example 136, 7-(2,2-difluoroethoxy)-1-(4-(methoxy-d3)phenyl)-3-(2-methyl-2H-indazol-5-yl)-3,4-dihydropyrido[2,3-d]pyrimidin-2(1H)-one] |
| 0.1 to 1 µM | < 0.1 µM | > 1 µM | < 0.1 µM | CCOc1ccc2c(n1)N(c1ccc(OC)cc1)C(=O)N(c1ccc3ncn(C)c3c1)C2 [Example 138, 7-ethoxy-1-(4-methoxyphenyl)-3-(1-methyl-1H-benzo[d]imidazol-6-yl)-3,4-dihydropyrido[2,3-d]pyrimidin-2(1H)-one] |
| < 0.1 µM | < 0.1 µM | > 1 µM | < 0.1 µM | COc1ccc(N2C(=O)N(c3ccc4ncn(C)c4c3)Cc3ccc(OCC(F)F)nc32)cc1 [Example 139, 7-(2,2-difluoroethoxy)-1-(4-methoxyphenyl)-3-(1-methyl-1H-benzo[d]imidazol-6-yl)-3,4-dihydropyrido[2,3-d]pyrimidin-2(1H)-one] |
| < 0.1 µM | < 0.1 µM | > 1 µM | < 0.1 µM | Cn1cnc2ccc(N3Cc4ccc(OCC(F)F)nc4N(c4ccc(OC(F)F)cc4)C3=O)cc21 [Example 140, 7-(2,2-difluoroethoxy)-1-(4-(difluoromethoxy)phenyl)-3-(1-methyl-1H-benzo[d]imidazol-6-yl)-3,4-dihydropyrido[2,3-d]pyrimidin-2(1H)-one] |
| < 0.1 µM | < 0.1 µM | 0.1 to 1 µM | < 0.1 µM | COc1ccc(N2C(=O)N(c3ccc4nn(C)cc4c3)Cc3ccc(OCC(F)F)nc32)cc1 [Example 141, 7-(2,2-difluoroethoxy)-1-(4-methoxyphenyl)-3-(2-methyl-2H-indazol-5-yl)-3,4-dihydropyrido[2,3-d]pyrimidin-2(1H)-one] |
| < 0.1 µM | < 0.1 µM | > 1 µM | < 0.1 µM | Cn1cc2cc(N3Cc4ccc(OCC(F)F)nc4N(c4ccc(OC(F)F)cc4)C3=O)ccc2n1 [Example 145, 7-(2,2-difluoroethoxy)-1-(4-(difluoromethoxy)phenyl)-3-(2-methyl-2H-indazol-5-yl)-3,4-dihydropyrido[2,3-d]pyrimidin-2(1H)-one] |
